Data: ChEMBL document CHEMBL3351647, “Organochalcogen compounds from glycerol: synthesis of new antioxidants” (Bioorg Med Chem, 2014)

Columns and labels:
Format in all cases: physicochemical
[1] = Antioxidant activity assessed as ABTS radical scavenging activity at 100 uM by spectrophotometry relative to control
[2] = Antioxidant activity assessed as […] scavenging activity by measuring NaNO2 at 10 uM by spectrophotometry
[3] = Antioxidant activity assessed as DPPH radical scavenging activity at 100 uM by spectrophotometry relative to control
[4] = Antioxidant activity assessed as ABTS radical scavenging activity at 500 uM by spectrophotometry relative to control
[5] = Antioxidant activity assessed as ABTS radical scavenging activity at 10 uM by spectrophotometry relative to control
[6] = Antioxidant activity assessed as […] scavenging activity by measuring NaNO2 at 100 uM by spectrophotometry
[7] = Antioxidant activity assessed as hydroxyl radical scavenging activity
[8] = Antioxidant activity assessed as inhibition of Fe2+/ascorbic acid-induced linoleic acid peroxidation at 100 uM by spectrophotometry relative to control; design: scale not given: the % may be the effect or the level left
[9] = Antioxidant activity assessed as DPPH radical scavenging activity at 500 uM by spectrophotometry relative to control
[10] = Antioxidant activity assessed as ABTS radical scavenging activity at 50 uM by spectrophotometry relative to control
[11] = Antioxidant activity assessed as inhibition of Fe2+/ascorbic acid-induced linoleic acid peroxidation at 500 uM by spectrophotometry relative to control; design: scale not given: the % may be the effect or the level left
[12] = Antioxidant activity assessed as inhibition of Fe2+/ascorbic acid-induced linoleic acid peroxidation at 10 uM by spectrophotometry relative to control; design: scale not given: the % may be the effect or the level left
[13] = Antioxidant activity assessed as inhibition of Fe2+/ascorbic acid-induced linoleic acid peroxidation at 1 uM by spectrophotometry relative to control; design: scale not given: the % may be the effect or the level left
[14] = Antioxidant activity assessed as inhibition of Fe2+/ascorbic acid-induced linoleic acid peroxidation at 5 uM by spectrophotometry relative to control; design: scale not given: the % may be the effect or the level left
[15] = Antioxidant activity assessed as ABTS radical scavenging activity at 25 uM by spectrophotometry relative to control
[16] = Antioxidant activity assessed as DPPH radical scavenging activity at 10 uM by spectrophotometry relative to control
[17] = Antioxidant activity assessed as DPPH radical scavenging activity at 50 uM by spectrophotometry relative to control
[18] = Antioxidant activity assessed as […] scavenging activity by measuring NaNO2 at 50 uM by spectrophotometry
[19] = Antioxidant activity assessed as […] scavenging activity by measuring NaNO2 at 500 uM by spectrophotometry
[20] = Antioxidant activity assessed as inhibition of Fe2+/ascorbic acid-induced linoleic acid peroxidation at 50 uM by spectrophotometry relative to control; design: scale not given: the % may be the effect or the level left
[21] = Antioxidant activity assessed as ferric ion reducing activity at 10 to 500 uM after 40 mins by spectrophotometry relative to control
[22] = Antioxidant activity assessed as ABTS radical scavenging activity by spectrophotometry relative to control
[23] = Antioxidant activity assessed as superoxide dismutase-like activity
[24] = Antioxidant activity assessed as inhibition of Fe2+/ascorbic acid-induced linoleic acid peroxidation by spectrophotometry relative to control
[25] = Antioxidant activity assessed as ABTS radical scavenging activity at 1 uM by spectrophotometry relative to control
[26] = Antioxidant activity assessed as ABTS radical scavenging activity at 5 uM by spectrophotometry relative to control
[27] = Antioxidant activity assessed as DPPH radical scavenging activity by spectrophotometry relative to control

SMILES | Activity [1] [%] | Activity [2] [µM] | Activity [3] [%] | Activity [4] [%] | Activity [5] [%] | Activity [6] [µM] | Activity [7] | Activity [8] [%] | Activity [9] [%] | Activity [10] [%] | Activity [11] [%] | Activity [12] [%] | Activity [13] [%] | Activity [14] [%] | Activity [15] [%] | Activity [16] [%] | Activity [17] [%] | Activity [18] [µM] | Activity [19] [µM] | Activity [20] [%] | further results
CC1(C)OCC(CO)O1 (stereo not given) | 1.7 | 56.6 | 0.98 | 9.84 | 0 | 52.22 | Not Active | 72.48 | 0.98 | 0.85 | 76.4 | 79.89 | 72.67 | 66.2 | 0 | 0.54 | 0.98 | 55.45 | 54.47 | 72.35 | Activity [21]: Not Active
CC1(C)OCC(CSc2ccccc2)O1 (stereo not given) | 0.36 | 49.59 | 0.5 | 0.08 | 0.47 | 50.48 | Not Active | 74.88 | 1.65 | 0.15 | 72.46 | 76.51 | 86.7 | 87.79 | 0 | 0.01 | 1.07 | 50.91 | 49.68 | 76.51 | Activity [21]: Not Active
CC1(C)OCC(C[Se]c2ccccc2)O1 (stereo not given) | 1.15 | 54.43 | 0.63 | 4.75 | 0 | 51.95 | Not Active | 86.55 | 1.3 | 1.19 | 81.22 | 86.97 | 88.37 | 94.34 | 0 | 0.98 | 0.63 | 52.5 | 49.65 | 89.97 | Activity [21]: Not Active
CC1(C)OCC(C[Te]c2ccccc2)O1 (stereo not given) | 99.5 | 64.13 | 22.55 | 99.9 | 22.72 | 54.93 | Not Active | 31.66 | 77.86 | 90.64 | 20.6 | 57.39 | 79.46 | 66.29 | 53.41 | 3.57 | 11.08 | 55.95 | 44.49 | 43.34 | IC50 [22]: 24.5 µM; Activity [23]: Not Active; IC50 [24]: 24.5 µM; Activity [25]: 2.18%; Activity [26]: 12.04%; IC50 [27]: 309 µM; Activity [21]: Active
